Like-named read-outs stand apart in the source and are kept apart here. Blank lines part the entries; values can stand above or below the compound they belong to. Peptide text beside a SMILES is read from it.
What was measured:
SSTR-2 = test: Radioligand binding, inhibition of 125I-Tyr11-SRIF binding to cloned SSTR-2
Experimental: (§1) The somatostatin analogs were tested for their potency in inhibition of the binding of ^125 I-Tyr^11 -SRIF (based on the method described by Raynor et. al., Molecular Pharmacology 43, 838-844, 1993) to membrane preparations expressing the transmembranal somatostatin receptors (SSTR-1,2,3,4 or 5). The receptor preparations used for these tests were either from the cloned receptors selectively and stably expressed in Chinese Hamster Ovary (CHO) cells or from cell lines naturally expressing the SSTRs. […] The binding reactions were filtered, the filters were washed and the bound radioactivity was counted in gamma counter. […] In order to validate positive signals of the binding tests, and to eliminate non-specific signals, samples of irrelevant peptides, such as GnRH, that were synthesized and handled using the same procedures, were tested in the same assays as negative control samples.

Lack of toxicity in rats = format: in vivo, rat; settings: for respiratory disturbances, stereotyped behavior, muscle tone: rats observed for 4 hours post administration
Experimental: PTR 3013 was not toxic to the rats even with doses of 4 mg/kg. These two doses are several orders of magnitude higher than those needed to elicit the desired endocrine effect. The peptides dissolved in saline produced no untoward side effects on the central nervous system, cardiovascular system, body temperature, nor on the periphery of the animals.

[1] = tested on: somatostatin receptors (SSTR-1,2,3,4 or 5); test: Radioligand binding assay, negative control peptides; settings: irrelevant peptides tested in the same assays
Experimental: as §1

rat SSTR-5 [2] = molecular target: T1, rat SSTR-5 (Rattus norvegicus, UniProt P30938); test: Radioligand binding, inhibition of 125I-Tyr11-SRIF binding to cloned rat SSTR-5
T1 sequence (P30938 1-363): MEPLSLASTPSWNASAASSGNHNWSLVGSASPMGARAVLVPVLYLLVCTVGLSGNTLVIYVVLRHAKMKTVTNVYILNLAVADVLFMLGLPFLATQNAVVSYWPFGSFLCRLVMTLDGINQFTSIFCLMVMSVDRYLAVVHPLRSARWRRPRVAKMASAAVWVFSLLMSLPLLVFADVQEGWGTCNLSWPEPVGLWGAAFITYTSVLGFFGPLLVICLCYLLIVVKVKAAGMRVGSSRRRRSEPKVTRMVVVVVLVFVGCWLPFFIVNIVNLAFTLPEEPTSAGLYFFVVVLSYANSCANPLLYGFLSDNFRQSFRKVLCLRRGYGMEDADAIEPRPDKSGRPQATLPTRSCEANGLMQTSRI
Experimental: as §1

SSTR-3 = SSTR-3 (Homo sapiens, UniProt P32745); test: Radioligand binding, inhibition of 125I-Tyr11-SRIF binding to cloned SSTR-3
Experimental: as §1

rat SSTR-5 [3] = molecular target: T1, rat SSTR-5; settings: Table 22; known SST analogs, literature values; read-out: IC50 value rSSTR 5; cited from earlier work
plasma amylase release = test: Bombesin stimulated plasma amylase release in rats; format: in vivo, rat
Experimental: (§2) Inhibition of either insulin or amylase release has been reported (Reisine and Bell, ibid.) to be highly correlated with affinity to the SST receptor subtype SSTR-5, while i inhibition of pituitary growth hormone (GH) release, pancreatic glucagon, and gastric acid secretion were SSTR-2 mediated. […] These doses were compared to the synthetic analog SMS-201 995 administered at a dose of 10 μg/kg.
(§3) Male Wister rats (weighing 200-220 g) were anaesthetized with pentobarbital (60 mg/kg) by the intraperitoneal (IP) route. The animals were allowed free access to food and water until 18 h before experiment, when all food (but not the water) was withdrawn. Furthermore the animals were housed in cages with wide mesh wire bottoms to prevent coprophagia (feeding on excrement).
(§4) After cannulation, a 0.7 ml sample of blood was drawn from the jugular vein, and transferred into an Eppendorf tube containing 20 IU heparin solution 5000 IU/ml. One minute later the peptides were administered subcutaneously (SC in 0.2 ml of 0.9% NaCl). Control rats were pretreated with 0.2 ml of 0.9% NaCl. At time 0 (5 min. after collection of baseline blood sample-1) a bombesin infusion (50 nmol/kg/hr) was started in all animals. Additional blood samples were collected at constant time intervals of 60, 90 and 120 min. during bombesin infusion.
(§5) Blood samples were collected into ice-cold tubes containing heparin (20 IU/ml) and were centrifuged (1500 g×10 min.). Plasma samples were frozen and kept at -20° C. until assayed for amylase and lipase.
Amylase levels were measured in plasma with the commercial (Raichem™) Amylase reagent.

human SSTR-5 = human SSTR-5 (Homo sapiens, UniProt P35346); test: Radioligand binding, inhibition of 125I-Tyr11-SRIF binding to cloned human SSTR-5; settings: cloned human receptor
Experimental: as §1

[4] = tested on: Growth Hormone (GH) release; test: Inhibition of growth hormone release in rats; format: in vivo, rat; settings: Sprague-Dawley male rats, 10 mg/kg subcutaneously, versus saline
Experimental: In vivo determination of the pharmacodynamic properties of cyclic peptide SST analogs was carried out in rats, according to known procedures. Inhibition of Growth Hormone (GH) release as a result of peptide administration was measured in Sprague-Dawley male rats. […] Time course profiles for GH release under constant experimental conditions were measured.
Adult male Sprague-Dawley rats, specific pathogen free (SPF), weighing 200-350 g, were maintained on a constant light-dark cycle (light from 8:00 to 20:00 h), temperature (21±3° C.), and relative humidity (55±10%). Laboratory chow and tap water were available ad libitum. On the day of the experiment, rats were anesthetized with pentobarbitone (50 mg/kg). […] A single blood sample (0.6 ml) was taken from the exposed cannulated jugular vein for the determination of the basal GH levels (-15 min.). Immediately thereafter the appropriate peptide treatment was administered. […] A physiological saline solution (0.9% NaCl) was administered as a control. All peptides were administered subcutaneously in a final volume of 0.2 ml. Further sampling was carried out at 15, 30, 60, and 90 minutes after peptide administration. […]
Rat growth hormone (rGH) [^125 I] levels were determined by means of a radioimmunoassay kit (Amersham). […] All samples were measured in duplicate.

insulin release = test: Glucose induced insulin release in rats; format: in vivo, rat
plasma lipase release = test: Bombesin stimulated plasma lipase release in rats; format: in vivo, rat
Experimental: as §2, §3, §4, §5
Lipase levels were measured in plasma with a commercial kit (Randox™).

[5] = In vitro biostability in human serum (HPLC); format: in vitro ADME; settings: 37° C.
Experimental: Analogs are tested for stability by their resistance to enzymatic degradation by incubation in serum or in tissue homogenate, separation of the proteins and recording of the peptide peaks by HPLC before and after incubation. […] These peaks are separated and characterized by mass spectrometry, N-terminal sequence and comparison to purified peptide peaks.
The assay was based on HPLC determination of peptide degradation as a function of time in serum at 37° C.

[6] = Table 21, inhibition of iodinated SRIF-14 binding, CHO cells, tested at 10^-6, 10^-7, 10^-8 M, read-out: IC50 SSTR-2

Sequence of SSTR-3 (P32745 whole entry, species assumed): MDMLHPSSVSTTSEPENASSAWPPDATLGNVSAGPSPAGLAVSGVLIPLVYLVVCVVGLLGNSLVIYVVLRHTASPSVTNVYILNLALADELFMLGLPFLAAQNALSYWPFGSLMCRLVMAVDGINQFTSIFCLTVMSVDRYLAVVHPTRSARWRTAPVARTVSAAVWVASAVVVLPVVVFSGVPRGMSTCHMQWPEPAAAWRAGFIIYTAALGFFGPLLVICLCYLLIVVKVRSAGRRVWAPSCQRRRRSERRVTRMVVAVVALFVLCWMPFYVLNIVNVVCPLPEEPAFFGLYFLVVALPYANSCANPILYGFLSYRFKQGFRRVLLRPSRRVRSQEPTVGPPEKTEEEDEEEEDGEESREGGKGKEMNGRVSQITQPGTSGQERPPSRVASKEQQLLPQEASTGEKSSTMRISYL
Sequence of human SSTR-5 (P35346 whole entry): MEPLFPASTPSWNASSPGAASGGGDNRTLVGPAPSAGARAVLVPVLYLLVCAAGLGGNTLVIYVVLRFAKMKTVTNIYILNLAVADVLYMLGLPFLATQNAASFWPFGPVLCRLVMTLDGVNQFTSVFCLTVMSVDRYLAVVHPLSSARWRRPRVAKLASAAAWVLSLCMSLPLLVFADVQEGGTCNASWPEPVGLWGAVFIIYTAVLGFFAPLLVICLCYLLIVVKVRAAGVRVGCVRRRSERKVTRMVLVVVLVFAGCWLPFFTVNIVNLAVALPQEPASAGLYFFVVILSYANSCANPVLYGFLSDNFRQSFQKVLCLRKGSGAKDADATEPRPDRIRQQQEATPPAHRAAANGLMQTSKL

Compound: CC(=O)N1CCCNC(=O)CCN(CC(=O)N[C@@H](Cc2ccccc2)C(=O)N[C@H](C(N)=O)[C@@H](C)O)C(=O)[C@H](CCCCN)NC(=O)[C@@H](Cc2c[nH]c3ccccc23)NC(=O)[C@H](Cc2ccccc2)NC(=O)C1 [PTR 3013] (HELM PEPTIDE1{[ac].[O=C(CN(CCCN[*:3])[*:1])[*:2]].F.[dW].K.[O=C(CN(CCC(=O)[*:3])[*:1])[*:2]].F.T.[am]}$PEPTIDE1,PEPTIDE1,2:R3-6:R3$$$V2.0)
IC50 (SSTR-2; [6]): > 10 µM | respiratory disturbances, stereotyped behavior, muscle tone (Lack of toxicity in rats): no respiratory disturbances | toxicity (Lack of toxicity in rats; rats, doses of 4 mg/kg): not toxic

binding activity of negative control samples [1]: no binding activity
Compound: GnRH: irrelevant peptide tested as negative control sample

Compound: C[C@@H](O)[C@H](NC(=O)CN1CCCNC(=O)CCN(C(=O)[C@H](N)Cc2ccccc2)CC(=O)N[C@@H](Cc2ccccc2)C(=O)N[C@H](Cc2c[nH]c3ccccc23)C(=O)N[C@@H](CCCCN)C(=O)N[C@@H]([C@@H](C)O)C1=O)C(N)=O [PTR 3007] (HELM PEPTIDE1{[dF].[O=C(CN(CCC(=O)[*:3])[*:1])[*:2]].F.[dW].K.T.[O=C(CN(CCCN[*:3])[*:1])[*:2]].T.[am]}$PEPTIDE1,PEPTIDE1,2:R3-7:R3$$$V2.0)
IC50 (rat SSTR-5 [2]): > 2 µM | IC50 (SSTR-3): > 10 µM | respiratory disturbances, stereotyped behavior, muscle tone (Lack of toxicity in rats): no respiratory disturbances

IC50 (rat SSTR-5 [2]): > 2 µM | IC50 (SSTR-3): > 10 µM
Compound: C[C@@H](O)[C@H](NC(=O)CN1CCCNC(=O)CN(C(=O)[C@H](N)Cc2ccccc2)CC(=O)N[C@@H](Cc2ccccc2)C(=O)N[C@H](Cc2c[nH]c3ccccc23)C(=O)N[C@@H](CCCCN)C(=O)N[C@@H]([C@@H](C)O)C1=O)C(N)=O [PTR 3004]

Compound: DPhe^5 -cyclo(Cys^6 -Tyr^7 -DTrp^8 -Lys^9 -Val^10 -Cys^11)-Trp^12 -NH2 [RC-160]
IC50 (rat SSTR-5 [3]): 0.0002 µM

affinity to human SSTR-5, in words (human SSTR-5): high affinity | binding to SSTR-2, in words (SSTR-2): does not bind | IC50 (SSTR-2; [6]): 0.5 µM | IC50 (SSTR-2; text summary of Example 85 binding data, read-out: affinity to SSTR-2): > 1 µM
Compound: CC(C)[C@@H]1NC(=O)[C@H](CCCCN)NC(=O)[C@@H](Cc2c[nH]c3ccccc23)NC(=O)[C@H](Cc2ccc(O)cc2)NC(=O)[C@H](Cc2ccccc2)NCCNC(=O)CCCN([C@@H](Cc2ccccc2)C(=O)N[C@H](C(N)=O)[C@@H](C)O)C1=O [PTR 3046, cyclo(PheN2^6 -Tyr^7 -DTrp^8 -Lys^9 -Val^10 -PheC3^11)-Thr^12 -NH2] (HELM PEPTIDE1{[O=C([C@H](Cc1ccccc1)NCCN[*:3])[*:2]].Y.[dW].K.V.[O=C([C@H](Cc1ccccc1)N(CCCC(=O)[*:3])[*:1])[*:2]].T.[am]}$PEPTIDE1,PEPTIDE1,1:R3-6:R3$$$V2.0)
inhibition of bombesin induced release of plasma amylase (plasma amylase release; 3 μg/kg SC, 90 min.): 31% | inhibition of bombesin induced release of plasma amylase (plasma amylase release; 3 μg/kg SC, 120 min.): 23% | inhibition of bombesin induced release of plasma amylase (plasma amylase release; 25 μg/kg SC, 90 min.): 60% | inhibition of bombesin induced release of plasma amylase (plasma amylase release; 25 μg/kg SC, 120 min.): 52% | inhibition of growth hormone release [4]: not significantly different from saline | decrease in insulin release (insulin release; Wister rats, 7 μg/kg subcutaneously, glucose 0.5 g/kg IV, versus control rats, p<0.05): 43% | potency on insulin release relative to Octreotide (insulin release; in vivo, from present study and manufacturer's ED 50 of Octreotide): 4 times | inhibition of bombesin-stimulated lipase secretion (plasma lipase release; 3 μg/kg SC, 90 min.): 33% | inhibition of bombesin-stimulated lipase secretion (plasma lipase release; 3 μg/kg SC, 120 min.): 26% | inhibition of bombesin-stimulated lipase secretion (plasma lipase release; 12.5 μg/kg SC, 90 min.): 30% | inhibition of bombesin-stimulated lipase secretion (plasma lipase release; 12.5 μg/kg SC, 120 min.): 25% | inhibition of bombesin-stimulated lipase secretion (plasma lipase release; 25 μg/kg SC, 90 min.): 51% | inhibition of bombesin-stimulated lipase secretion (plasma lipase release; 25 μg/kg SC, 120 min.): 35%

Compound: C[C@@H](O)[C@H](NC(=O)CN1CCNC(=O)CCN(C(=O)[C@H](N)Cc2ccccc2)CC(=O)N[C@@H](Cc2ccccc2)C(=O)N[C@H](Cc2c[nH]c3ccccc23)C(=O)N[C@@H](CCCCN)C(=O)N[C@@H]([C@@H](C)O)C1=O)C(N)=O [PTR 3002] (HELM PEPTIDE1{[dF].[O=C(CN(CCC(=O)[*:3])[*:1])[*:2]].F.[dW].K.T.[O=C(CN(CCN[*:3])[*:1])[*:2]].T.[am]}$PEPTIDE1,PEPTIDE1,2:R3-7:R3$$$V2.0)
in vitro biostability (peptide degradation as a function of time) [5]: as stable as Octreotide, is more stable than the corresponding non-cyclic structure, and is much more stable than SRIF

Compound: C[C@@H](O)[C@@H]1NC(=O)[C@H](CCCCN)NC(=O)[C@@H](Cc2c[nH]c3ccccc23)NC(=O)[C@H](Cc2ccccc2)NC(=O)[C@@H](NC(=O)[C@H](N)Cc2ccccc2)CSSC[C@@H](C(=O)N[C@H](CO)[C@@H](C)O)NC1=O [Octreotide, DPhe^5 -cyclo(Cys^6 -Phe^7 -DTrp^5 -Lys^9 -Thr^10 -Cys^11)-Thr^12 -ol]
IC50 (rat SSTR-5 [3]): 0.0002 µM

IC50 (SSTR-2; [6]): > 10 µM
Compound: C[C@@H](O)[C@H](NC(=O)[C@H](Cc1ccccc1)NC(=O)CN1CCNC(=O)CCN(C(=O)[C@H](N)Cc2ccccc2)CC(=O)N[C@@H](Cc2ccccc2)C(=O)N[C@H](Cc2c[nH]c3ccccc23)C(=O)N[C@@H](CCCCN)C1=O)C(N)=O [PTR 3019] (HELM PEPTIDE1{[dF].[O=C(CN(CCC(=O)[*:3])[*:1])[*:2]].F.[dW].K.[O=C(CN(CCN[*:3])[*:1])[*:2]].F.T.[am]}$PEPTIDE1,PEPTIDE1,2:R3-6:R3$$$V2.0)
